Key:
hTRPA1 channel = hTRPA1 channel (Homo sapiens, UniProt O75762); assay: Inhibition of TRPA1 channel activity; type: cell-based; details: procedure similar to WO 2007/073505; read-out: IC50 against hTRPA1 channel activity
Protocol: Compound 1 was tested using a procedure similar to the procedure outlined in WO 2007/073505.

[1] = system: AITC-induced pain behavior; assay: AITC-induced pain behavior (automated flinch detecting system) in the rat; type: in vivo; details: 50 mg/kg oral gavage
Protocol: Compound 1 was tested in the automated flinch detecting system described by Yaksh et al., J. Appl. Physiol 90: 2386-2402 (2001). A small metal band was loosely placed around each rat's left hind paw. The fasted rats were dosed (50 mg/kg) via oral gavage with Compound 1 (8 animals) or vehicle (8 animals, 30% Captisol® in water, pH 10). The rats were acclimatized in the test chamber prior to allyl isothiocyanate (AITC) administration. AITC was then injected into the paw of each animal, and the animal was promptly returned to the chamber. The number of paw flinches was monitored for 60 minutes. After 10 minutes, animals receiving vehicle flinched a total of about 350 times, while the treated animals flinched about 200 times. After 60 minutes the animals that had received vehicle prior to AITC administration flinched about 1950 times, while the compound pre-treated animals flinched about 1000 times.

[2] = system: formalin-induced pain behavior; assay: Formalin-induced pain behavior in rats; type: in vivo, rat; details: 50 mg/kg oral, one hour prior to intraplantar formalin (3%), observed for 2 minutes following injection
Protocol: Compound 1 was tested in the formalin-induced pain test reported by Dubuisson et al., Pain 1977 December; 4(2):161-74. The compound was dosed orally in rats (8 animals) at 50 mg/kg, one hour prior to intraplantar formalin (3%) injection. The control group (8 animals) received vehicle (30% Captisol® in water, pH 10). […] The duration of pain behavior in the treated animals was reduced by about 30%, compared to the animals who received vehicle.

Chain of hTRPA1 channel (O75762 whole entry): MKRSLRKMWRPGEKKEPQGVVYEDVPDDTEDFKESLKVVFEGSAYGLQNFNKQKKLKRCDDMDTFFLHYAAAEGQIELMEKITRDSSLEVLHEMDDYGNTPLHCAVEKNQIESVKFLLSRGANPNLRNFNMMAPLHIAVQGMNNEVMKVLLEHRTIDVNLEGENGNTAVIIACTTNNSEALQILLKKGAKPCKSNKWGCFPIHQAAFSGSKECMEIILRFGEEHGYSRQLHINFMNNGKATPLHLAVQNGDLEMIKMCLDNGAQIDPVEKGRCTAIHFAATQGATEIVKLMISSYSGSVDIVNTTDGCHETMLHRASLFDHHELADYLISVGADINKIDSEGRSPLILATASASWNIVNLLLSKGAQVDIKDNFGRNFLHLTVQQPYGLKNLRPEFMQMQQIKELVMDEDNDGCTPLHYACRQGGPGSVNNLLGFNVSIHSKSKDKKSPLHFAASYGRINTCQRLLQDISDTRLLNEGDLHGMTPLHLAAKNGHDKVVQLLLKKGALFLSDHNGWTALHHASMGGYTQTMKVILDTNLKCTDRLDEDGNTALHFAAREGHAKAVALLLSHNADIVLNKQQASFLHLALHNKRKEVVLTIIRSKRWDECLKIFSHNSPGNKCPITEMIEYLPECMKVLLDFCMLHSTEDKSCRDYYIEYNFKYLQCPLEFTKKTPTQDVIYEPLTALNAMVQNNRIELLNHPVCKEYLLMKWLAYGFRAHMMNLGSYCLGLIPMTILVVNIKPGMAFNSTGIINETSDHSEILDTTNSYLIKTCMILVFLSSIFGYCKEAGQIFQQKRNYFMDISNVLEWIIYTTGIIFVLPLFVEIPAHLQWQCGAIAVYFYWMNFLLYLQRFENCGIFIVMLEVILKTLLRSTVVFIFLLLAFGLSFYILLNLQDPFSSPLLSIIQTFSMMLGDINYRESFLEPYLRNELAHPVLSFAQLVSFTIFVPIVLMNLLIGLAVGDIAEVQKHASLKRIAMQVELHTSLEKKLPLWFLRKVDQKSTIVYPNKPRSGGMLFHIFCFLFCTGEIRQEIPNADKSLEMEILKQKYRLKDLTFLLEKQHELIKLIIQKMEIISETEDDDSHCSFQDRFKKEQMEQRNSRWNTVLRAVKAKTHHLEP

SMILES: C[C@H]1CCCN1c1ccc(-c2csc(NC(=O)Cn3cnc4c3c(=O)n(C)c(=O)n4C)n2)cc1F [Compound 1]
- IC50 (hTRPA1 channel): ~4 nM
- total number of paw flinches after 10 minutes ([1]; fasted rats, AITC injected into paw, after 10 minutes (vehicle about 350)): about 200 times
- total number of paw flinches after 60 minutes ([1]; fasted rats, AITC injected into paw, after 60 minutes (vehicle about 1950)): about 1000 times
- effect on AITC-induced pain behavior ([1]; rats): able to reduce the AITC-induced pain behavior
- reduction of duration of pain behavior compared to vehicle [2]: about 30%

— patent publication US9649315B2, “Composition useful for treating disorders related to TRPA1” (HYDRA BIOSCIENCES, INC., priority 2008, dated 2017)
